Experiment: xn = mol fraction of the nth substance listed

CC#N + O
Conditions | viscosity [mPa·s]
293.15 K, 101 kPa, x1 = 0.032 | 1.095
293.15 K, 101 kPa, x1 = 0.057 | 1.11
293.15 K, 101 kPa, x1 = 0.097 | 1.103
293.15 K, 101 kPa, x1 = 0.154 | 1.023
293.15 K, 101 kPa, x1 = 0.2 | 0.963
293.15 K, 101 kPa, x1 = 0.395 | 0.723
293.15 K, 101 kPa, x1 = 0.596 | 0.516
293.15 K, 101 kPa, x1 = 0.8 | 0.413
293.15 K, 101.33 kPa, x1 = 0.03 | 1.091
293.15 K, 101.33 kPa, x1 = 0.06 | 1.124
293.15 K, 101.33 kPa, x1 = 0.12 | 1.105
293.15 K, 101.33 kPa, x1 = 0.22 | 1.029
293.15 K, 101.33 kPa, x1 = 0.29 | 0.9338
293.15 K, 101.33 kPa, x1 = 0.37 | 0.7979
293.15 K, 101.33 kPa, x1 = 0.43 | 0.722
293.15 K, 101.33 kPa, x1 = 0.61 | 0.5948
293.15 K, 101.33 kPa, x1 = 0.7 | 0.5389
293.15 K, 101.33 kPa, x1 = 0.87 | 0.4657
298.15 K, 101 kPa, x1 = 0.046 | 0.867
298.15 K, 101 kPa, x1 = 0.1 | 0.862
298.15 K, 101 kPa, x1 = 0.2 | 0.858
298.15 K, 101 kPa, x2 = 0.2626 | 0.42
298.15 K, 101 kPa, x2 = 0.4466 | 0.517
298.15 K, 101 kPa, x2 = 0.4952 | 0.554
298.15 K, 101 kPa, x2 = 0.6032 | 0.651
298.15 K, 101 kPa, x2 = 0.613 | 0.66
298.15 K, 101 kPa, x2 = 0.6508 | 0.669
298.15 K, 101 kPa, x2 = 0.7029 | 0.754
298.15 K, 101 kPa, x2 = 0.7445 | 0.801
298.15 K, 101 kPa, x2 = 0.7543 | 0.815
298.15 K, 101.3 kPa, x1 = 0.025 | 0.9497
298.15 K, 101.3 kPa, x1 = 0.05 | 0.9779
298.15 K, 101.3 kPa, x1 = 0.075 | 0.9826
298.15 K, 101.3 kPa, x1 = 0.1 | 0.9704
298.15 K, 101.3 kPa, x1 = 0.2019 | 0.8706
298.15 K, 101.33 kPa, x2 = 0.1028 | 0.375
298.15 K, 101.33 kPa, x2 = 0.2071 | 0.402
298.15 K, 101.33 kPa, x2 = 0.297 | 0.436
298.15 K, 101.33 kPa, x2 = 0.4021 | 0.495
298.15 K, 101.33 kPa, x2 = 0.4985 | 0.563
298.15 K, 101.33 kPa, x2 = 0.6057 | 0.656
298.15 K, 101.33 kPa, x2 = 0.6987 | 0.75
298.15 K, 101.33 kPa, x2 = 0.7843 | 0.842
298.15 K, 101.33 kPa, x2 = 0.8773 | 0.94
303.15 K, 101 kPa, x1 = 0.032 | 0.861
303.15 K, 101 kPa, x1 = 0.0498 | 0.8684
303.15 K, 101 kPa, x1 = 0.057 | 0.872
303.15 K, 101 kPa, x1 = 0.065 | 0.8736
303.15 K, 101 kPa, x1 = 0.084 | 0.8728
303.15 K, 101 kPa, x1 = 0.097 | 0.868
303.15 K, 101 kPa, x1 = 0.1498 | 0.8314
303.15 K, 101 kPa, x1 = 0.154 | 0.815
303.15 K, 101 kPa, x1 = 0.2 | 0.774
303.15 K, 101 kPa, x1 = 0.2534 | 0.7376
303.15 K, 101 kPa, x1 = 0.3831 | 0.6065
303.15 K, 101 kPa, x1 = 0.395 | 0.607
303.15 K, 101 kPa, x1 = 0.5071 | 0.5088
303.15 K, 101 kPa, x1 = 0.596 | 0.449
303.15 K, 101 kPa, x1 = 0.6075 | 0.4532
303.15 K, 101 kPa, x1 = 0.7039 | 0.4039
303.15 K, 101 kPa, x1 = 0.8 | 0.372
303.15 K, 101 kPa, x1 = 0.8042 | 0.3676
303.15 K, 101 kPa, x1 = 0.894 | 0.3442
308.15 K, 101 kPa, x1 = 0.046 | 0.707
308.15 K, 101 kPa, x1 = 0.0498 | 0.7729
308.15 K, 101 kPa, x1 = 0.065 | 0.7826
308.15 K, 101 kPa, x1 = 0.084 | 0.7812
308.15 K, 101 kPa, x1 = 0.1 | 0.705
308.15 K, 101 kPa, x1 = 0.1498 | 0.7485
308.15 K, 101 kPa, x1 = 0.2 | 0.697
308.15 K, 101 kPa, x1 = 0.2534 | 0.67
308.15 K, 101 kPa, x1 = 0.3831 | 0.5596
308.15 K, 101 kPa, x1 = 0.5071 | 0.4711
308.15 K, 101 kPa, x1 = 0.6075 | 0.4236
308.15 K, 101 kPa, x1 = 0.7039 | 0.3804
308.15 K, 101 kPa, x1 = 0.8042 | 0.3486
308.15 K, 101 kPa, x1 = 0.894 | 0.3278
313.15 K, 101 kPa, x1 = 0.032 | 0.698
313.15 K, 101 kPa, x1 = 0.0498 | 0.6998
313.15 K, 101 kPa, x1 = 0.057 | 0.707
313.15 K, 101 kPa, x1 = 0.065 | 0.7058
313.15 K, 101 kPa, x1 = 0.084 | 0.7062
313.15 K, 101 kPa, x1 = 0.097 | 0.707
313.15 K, 101 kPa, x1 = 0.1498 | 0.6782
313.15 K, 101 kPa, x1 = 0.154 | 0.668
313.15 K, 101 kPa, x1 = 0.2 | 0.641
313.15 K, 101 kPa, x1 = 0.2534 | 0.612
313.15 K, 101 kPa, x1 = 0.3831 | 0.5157
313.15 K, 101 kPa, x1 = 0.395 | 0.516
313.15 K, 101 kPa, x1 = 0.5071 | 0.441
313.15 K, 101 kPa, x1 = 0.596 | 0.399
313.15 K, 101 kPa, x1 = 0.6075 | 0.3978
313.15 K, 101 kPa, x1 = 0.7039 | 0.3598
313.15 K, 101 kPa, x1 = 0.8 | 0.34
313.15 K, 101 kPa, x1 = 0.8042 | 0.3318
313.15 K, 101 kPa, x1 = 0.894 | 0.3132
318.15 K, 101 kPa, x1 = 0.046 | 0.584
318.15 K, 101 kPa, x1 = 0.0498 | 0.635
318.15 K, 101 kPa, x1 = 0.065 | 0.6402
318.15 K, 101 kPa, x1 = 0.084 | 0.6409
318.15 K, 101 kPa, x1 = 0.1 | 0.58
318.15 K, 101 kPa, x1 = 0.1498 | 0.6185
318.15 K, 101 kPa, x1 = 0.2 | 0.578
318.15 K, 101 kPa, x1 = 0.2534 | 0.5635
318.15 K, 101 kPa, x1 = 0.3831 | 0.4801
318.15 K, 101 kPa, x1 = 0.5071 | 0.4101
318.15 K, 101 kPa, x1 = 0.6075 | 0.3754
318.15 K, 101 kPa, x1 = 0.7039 | 0.3408
318.15 K, 101 kPa, x1 = 0.894 | 0.2996
323.15 K, 101 kPa, x1 = 0.032 | 0.579
323.15 K, 101 kPa, x1 = 0.0498 | 0.5802
323.15 K, 101 kPa, x1 = 0.057 | 0.587
323.15 K, 101 kPa, x1 = 0.097 | 0.589
323.15 K, 101 kPa, x1 = 0.154 | 0.561
323.15 K, 101 kPa, x1 = 0.2 | 0.54
323.15 K, 101 kPa, x1 = 0.395 | 0.447
323.15 K, 101 kPa, x1 = 0.596 | 0.356
323.15 K, 101 kPa, x1 = 0.8 | 0.312
